Measured values taken from PMC12857768 (Journal of medicinal chemistry, 2024).
“Also recorded” adds a separate entry of the source.

Tests used:
[1] = system: circulating organ toxicity biomarkers; test: In vivo toxicity: circulating markers of organ toxicities; set-up: species or system mice; details: serum/plasma at end of study, 10 mg/kg oral gavage, N = 9-10
[2] = system: skin lesions; test: Skin lesions / adverse side effects in mice during the in vivo study; set-up: species or system C57BL/6 female mice; details: 10 mg/kg oral gavage 5 times per week
[3] = target: Pyk2 kinase (Homo sapiens, UniProt Q14289); test: Pyk2 kinase activity assay; format: biochemical; details: for Pyk2 kinase inhibitory effect (in words): kinase inhibitory assay
[4] = system: GC-induced bone loss; details: murine model of GC excess; previous studies; cited from earlier work

Chain of Pyk2 kinase (Q14289 whole entry): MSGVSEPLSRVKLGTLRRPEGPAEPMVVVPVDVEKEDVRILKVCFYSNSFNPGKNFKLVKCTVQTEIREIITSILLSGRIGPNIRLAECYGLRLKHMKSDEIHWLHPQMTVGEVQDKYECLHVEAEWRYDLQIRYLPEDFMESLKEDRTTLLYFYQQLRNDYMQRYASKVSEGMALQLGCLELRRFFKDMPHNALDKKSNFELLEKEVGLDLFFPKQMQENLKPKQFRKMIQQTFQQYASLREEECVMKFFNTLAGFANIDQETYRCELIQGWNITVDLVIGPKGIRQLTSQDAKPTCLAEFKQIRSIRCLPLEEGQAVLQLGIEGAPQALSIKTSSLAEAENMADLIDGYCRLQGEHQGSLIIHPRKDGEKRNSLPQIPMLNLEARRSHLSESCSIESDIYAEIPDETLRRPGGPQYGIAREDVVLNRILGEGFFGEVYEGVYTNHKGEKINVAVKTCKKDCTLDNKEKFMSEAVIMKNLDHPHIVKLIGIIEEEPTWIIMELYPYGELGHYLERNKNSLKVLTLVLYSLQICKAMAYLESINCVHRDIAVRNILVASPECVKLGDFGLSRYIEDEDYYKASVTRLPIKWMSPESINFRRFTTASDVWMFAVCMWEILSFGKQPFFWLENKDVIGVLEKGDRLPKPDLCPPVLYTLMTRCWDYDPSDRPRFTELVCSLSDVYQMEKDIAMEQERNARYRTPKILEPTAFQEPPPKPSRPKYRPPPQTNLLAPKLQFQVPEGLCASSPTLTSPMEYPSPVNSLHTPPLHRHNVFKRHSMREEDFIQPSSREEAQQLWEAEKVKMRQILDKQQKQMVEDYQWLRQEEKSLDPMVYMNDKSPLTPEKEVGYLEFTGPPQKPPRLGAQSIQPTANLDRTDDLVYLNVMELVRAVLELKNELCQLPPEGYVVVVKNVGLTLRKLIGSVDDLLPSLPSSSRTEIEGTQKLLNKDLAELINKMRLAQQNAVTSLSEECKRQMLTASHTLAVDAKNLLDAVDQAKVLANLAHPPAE

SMILES | Circulating organ toxicity biomarkers vs control groups ([1]; 10 mg/kg) | Skin lesions / adverse side effects (in words) [2] | Pyk2 kinase inhibitory effect (in words) [3] | Circulating organ toxicity biomarkers vs control groups [1] | IC50 [3] | Prevention of GC-induced bone loss [4]
CNC(=O)c1ccccc1Nc1nc(Nc2ccc(NC(=O)CCCCC(=O)NCCCC(O)(P(=O)(O)O)P(=O)(O)O)cc2OC)ncc1Cl [BT-Amide, (4-(6-((4-((5-Chloro-4-((2-(methylcarbamoyl)phenyl)amino)pyrimidin-2-yl)amino)-3-methoxyphenyl)amino)-6-oxohexanamido)-1-hydroxybutane-1,1-diyl)bis(phosphonic Acid)] | no significant difference; also recorded: None of the markers were significantly elevated above control levels | no adverse side effects were observed | moderate inhibitory effects |  |  | 
CNC(=O)c1ccccc1Nc1nc(Nc2ccc(N3CCC(OC(=O)CCCCC(=O)NCCCC(O)(P(=O)(O)O)P(=O)(O)O)CC3)cc2OC)ncc1Cl [BT-Ester, (4-(6-((1-(4-((5-Chloro-4-((2-(methylcarbamoyl)phenyl)amino)pyrimidin-2-yl)amino)-3-methoxyphenyl)piperidin-4-yl)oxy)-6-oxohexanamido)-1-hydroxybutane-1,1-diyl)bis(phosphonic Acid)] |  | did not develop skin lesions | low inhibition | None of the markers were significantly elevated above control levels | 119 ± 41 nM | 
CN(c1ccccc1CNc1nc(Nc2ccc3c(c2)CC(=O)N3)ncc1C(F)(F)F)S(C)(=O)=O [PF-431396] |  |  |  |  |  | prevents GC-induced bone loss
